Measurements as given in patent US20070293472A1, “Novel 14 and 15 Membered Ring Compounds” (Glaxo Group Limited, priority 2003, published 2007).
Structures can show the parent of a compound that is named as a salt.

Experiments:
Experiment in all cases: MIC, standard broth dilution method in microtitre
Format in all cases: cell-based
E. faecalis ATCC 29212 = settings: Enterococcus faecalis, ATCC29212
Experimental: (§1) Using a standard broth dilution method in microtitre, compounds were tested for antibacterial activity. The compounds in the above examples gave minimum inhibitory concentrations (MICs) less than 1 microgram per millilitre against erythromycin-sensitive and erythromycin-resistant strains of Streptococcus pneumoniae and Streptococcus pyogenes.
(§2) In addition, the MIC (μg/mL) of test compounds against various organisms was determined including:
(§3) S. aureus Smith ATCC 13709, S. pneumoniae SP030, S. pyogenes 3565, E. faecalis ATCC 29212, H. influenzae ATCC 49247, M. catarrhalis ATCC 23246.

S. pneumoniae SP030 = settings: Streptococcus pneumoniae
Experimental: as §1, §2, §3

S. pyogenes 3565 = settings: Streptococcus pyogenes
Experimental: as §1, §2, §3

[1] = tested on: S. aureus Smith ATCC 13709; settings: Staphylococcus aureus, ATCC13709
Experimental: as §1, §2, §3

[2] = tested on: erythromycin-resistant strains of Streptococcus pneumoniae
Experimental: as §1

[3] = tested on: erythromycin-resistant strains of Streptococcus pyogenes
Experimental: as §1

H. influenzae ATCC 49247 = settings: Haemophilus influenzae, ATCC49247
Experimental: as §1, §2, §3

[4] = tested on: M. catarrhalis ATCC 23246; settings: Moraxella catarrhalis, ATCC23246
Experimental: as §1, §2, §3

Row | SMILES | MIC (E. faecalis ATCC 29212) [µg/mL] | MIC (S. pneumoniae SP030) [µg/mL] | MIC (S. pyogenes 3565) [µg/mL] | MIC [1] [µg/mL] | MIC [2] [µg/mL] | MIC [3] [µg/mL] | MIC (H. influenzae ATCC 49247) [µg/mL] | MIC [4] [µg/mL]
1 | CC[C@H]1OC(=O)[C@H](C)[C@@H](O[C@H]2C[C@@](C)(OC)[C@@H](OC(=O)CCNCCCc3cc4c(cc3F)c(=O)c(C(=O)O)cn4CC)[C@H](C)O2)[C@H](C)[C@@H](O[C@@H]2O[C@H](C)C[C@H](N(C)C)[C@H]2O)[C@](C)(OC)C[C@@H](C)C(=O)[C@H](C)[C@@H](O)[C@]1(C)O [Example 1, 4″-O-{3-[3-(3-Carboxy-1,4-dihydro-1-ethyl-6-fluoro-4-oxo-7-quinolinyl)propylamino]propionyl}-6-O-methylerythromycin A] | ≤ 1 | ≤ 1 | ≤ 1 | ≤ 1 |  |  |  | 
2 | CC[C@@H]1OC(=O)[C@H](C)[C@H](O[C@@H]2C[C@](C)(OC)[C@H](OC(=O)CCNCCCc3cc4c(cc3F)c(=O)c(C(=O)O)cn4CC)[C@H](C)O2)[C@@H](C)[C@H](O[C@@H]2O[C@H](C)C[C@H](N(C)C)[C@@H]2O)[C@](C)(O)C[C@H](C)CN(C)[C@H](C)[C@@H](O)[C@]1(C)O [Example 2, 4″-O-{3-[3-(3-Carboxy-1,4-dihydro-1-ethyl-6-fluoro-4-oxo-7-quinolinyl)propylamino]propionyl}-azithromycin tris trifluoroacetate salt] | ≤ 1 | ≤ 1 | ≤ 1 | ≤ 1 |  |  |  | 
3 | CC[C@@H]1OC(=O)[C@H](C)[C@H](O[C@@H]2C[C@](C)(OC)[C@H](OC(=O)CCNCCCc3ccc4c(c3)c(=O)c(C(=O)O)cn4CC)[C@H](C)O2)[C@@H](C)[C@H](O[C@@H]2O[C@H](C)C[C@H](N(C)C)[C@@H]2O)[C@](C)(O)C[C@H](C)CN(C)[C@H](C)[C@@H](O)[C@]1(C)O [Example 5, 4″-O-{3-[3-(3-Carboxy-1,4-dihydro-1-ethyl-4-oxo-6-quinolinyl)propylamino]propionyl}-azithromycin] |  |  |  |  | ≤ 0.25 | ≤ 0.25 |  | 
4 | CC[C@@H]1OC(=O)[C@H](C)[C@H](O[C@@H]2C[C@](C)(OC)[C@H](OC(=O)CCNCCCc3ccc4c(c3)c(=O)c(C(=O)O)cn4CC)[C@H](C)O2)[C@@H](C)[C@H](O[C@@H]2O[C@H](C)C[C@H](N(C)C)[C@@H]2O)[C@](C)(O)C[C@H](C)CN(C)[C@@H](C)[C@H]2OC(=O)O[C@@]12C [Example 6, 4″-O-{3-[3-(3-Carboxy-1-dihydro-1-ethyl-4-oxo-6-quinolinyl)propylamino]propionyl}-azithromycin-11,12-carbonate] | ≤ 1 | ≤ 1 | ≤ 1 | ≤ 1 | ≤ 0.25 | ≤ 0.25 | ≤ 2 | ≤ 2
5 | CC[C@@H]1OC(=O)[C@H](C)[C@H](O[C@@H]2C[C@](C)(OC)[C@H](OC(=O)CCNCCCc3ccc4c(c3)c(=O)c(C(=O)O)cn4CC)[C@H](C)O2)[C@@H](C)[C@H](O[C@@H]2O[C@H](C)C[C@H](N(C)C)[C@@H]2O)[C@](C)(OC)C[C@H](C)C(=O)[C@@H](C)[C@H]2NC(=O)O[C@@]12C [Example 7, 4″-O-{3-[3-(3-Carboxy-1,4-dihydro-1-ethyl-4-oxo-6-quinolinyl)propylamino]-propionyl}-6-O-methyl-11-desoxy-11-(R)-amino-erythromycin A 11,12-carbamate diformate salt] |  |  |  |  | ≤ 0.25 | ≤ 0.25 | ≤ 2 | ≤ 2
6 | CC[C@@H]1OC(=O)[C@H](C)[C@H](O[C@@H]2C[C@](C)(OC)[C@H](OC(=O)CCNCCCc3ccc4c(c3)c(=O)c(C(=O)OC)cn4CC)[C@H](C)O2)[C@@H](C)[C@H](O[C@@H]2O[C@H](C)C[C@H](N(C)C)[C@@H]2O)[C@](C)(OC)C[C@H](C)C(=O)[C@@H](C)[C@H]2NC(=O)O[C@@]12C [Example 8, 4″-O-{3-[3-(3-Carboxy-1,4-dihydro-1-ethyl-4-oxo-6-quinolinyl)propylamino]propionyl}-6-O-methyl-11-desoxy-11-(R)-amino-erythromycin A 11,12-carbamate methyl ester diformate salt] | ≤ 1 | ≤ 1 | ≤ 1 | ≤ 1 | ≤ 0.25 | ≤ 0.25 |  | 
